Data on 22 molecules can be found in patent publication US7919488B2, “Therapeutic compounds” (Pfizer Inc., priority 2006, dated 2011).

Common to all, as to format: biochemical
The target of assay [1] is T1, CYP3A4 (Homo sapiens, UniProt P08684).
T1 construct: 0.1 mg/mL human liver microsomes; from tissue; host or cells: human liver microsomes
Nature of the assay: IC50 against CYP3A4 by inhibition of midazolam metabolism in human liver microsomes. As to conditions: 0.1 mg/mL human liver microsomes, 2 μM midazolam, 1 mM NADPH, 1-hydroxymidazolam production, eight minutes; read-out: IC50, μM (HLM, midazolam). Here is the method: 3. Determination of IC50 Against CYP3A4 by Measurement of Inhibition of Midazolam Metabolism
This assay was performed using a standard 96 well plate design. […] The incubation substrate mix contains 2 μM midazolam, 0.1 mg/mL human liver microsomes, 1 mM NADPH, and potassium phosphate buffer (100 mM, pH 7.4). Quantitation of metabolite peak area ratio against internal standard is determined by LC-MS/MS analysis. The production of 1-hydroxymidazolam from midazolam metabolism is determined after incubation for eight minutes by comparison to a standard curve generated for the metabolite.
(§1) Samples were analyzed in the MRM mode using a Sciex API 3000 mass spectrometer (Applied Biosystems, Foster City, Calif.) with a Paradigm MS4 binary pump (Michrom BioResources Inc., Auburn, Calif.) and a LEAP CTC PAL autosampler (LEAP Technologies, Carrboro, N.C.). A Phenomenex Synergi, 4μ, Polar-RP, 10×2.0 mm column (Phenomenex, Torrance, Calif.) was used for separation with a mobile phase composition of: 0.1% formic acid in water (A) and: 0.1% formic acid in methanol (B). The following gradient was used: […]
(§2) The sample injection volume was 10 μL and flow was split post-column with 0.4 mL/min going to the mass spectrometer. Analysis was performed using the following API 3000 mass spectrometer settings: […]
Background: Microsomes from liver hold many membrane-bound enzymes, among them those of drug oxidation.

The target of assay [2] is T2, recombinant CYP3A4-b5 enzyme (Baculosomes®) (Homo sapiens, UniProt P08684).
T2 construct: purchased Invitrogen (Carlsbad, Calif.)
T2 sequence (P08684 whole entry): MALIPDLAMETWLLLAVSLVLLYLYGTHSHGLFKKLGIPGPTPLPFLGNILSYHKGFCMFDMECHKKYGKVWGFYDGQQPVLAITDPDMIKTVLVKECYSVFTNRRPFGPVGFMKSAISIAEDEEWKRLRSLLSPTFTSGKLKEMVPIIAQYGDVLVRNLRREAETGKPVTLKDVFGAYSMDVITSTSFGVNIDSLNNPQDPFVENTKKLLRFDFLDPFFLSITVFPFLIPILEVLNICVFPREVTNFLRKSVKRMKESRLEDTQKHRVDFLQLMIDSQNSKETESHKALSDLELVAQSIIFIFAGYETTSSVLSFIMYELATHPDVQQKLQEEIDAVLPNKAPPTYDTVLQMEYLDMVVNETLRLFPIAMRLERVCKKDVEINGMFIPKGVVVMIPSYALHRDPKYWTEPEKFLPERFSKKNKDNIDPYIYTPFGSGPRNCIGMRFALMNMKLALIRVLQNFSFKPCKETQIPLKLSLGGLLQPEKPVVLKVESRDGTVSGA
The assay is described as follows: Kiapp against recombinant CYP3A4 enzyme (Baculosomes), BFC substrate. As to conditions: recombinant CYP3A4-b5 (Invitrogen), 5 uM BFC, 200 uM NADPH, pre-incubation at least 30 minutes, pH 7.0, room temperature. Here is the method: 1. Determination of Compound Kiapp
A determination of the Kiapp of the compounds of the invention against recombinant CYP3A4 enzyme was performed as follows. The assay was performed in a 100 mM sodium phosphate buffer pH 7.0, 5 mM TCEP and containing 2% dimethylformamide (final concentration) upon addition of substrate and inhibitor. A typical reaction for the determination of Kiapp values was carried at room temperature in a solid black Costar u-bottom 96-well polypropylene plate. […] When pre-incubation was completed (˜30 min), the reaction was initiated by adding NADPH (200 uM, final concentration), and 7-benzyloxy-4-(trifluoromethyl)-coumarin (BFC) (5 uM, final concentration). The oxidation of the coumarin substrate was recorded by a 96-well plate reader POLARstar (BMG LABTECH, Offenburg, Germany).
The initial reaction velocities were measured during the first 5 min of the reaction when the release of the fluorescent product is linear with time, in the absence and in the presence of various concentrations of inhibitors.
The fluorescent substrate BFC was purchased from Sigma (St Louis, Mo.). Two commercial sources of recombinant enzymes were used in this study: recombinant CYP3A4-b5 enzyme (Baculosomes®) was purchased from Invitrogen (Carlsbad, Calif.) and the recombinant CYP3A4+b5 enzyme (Supersomes®) was purchased from BD Biosciences (Woburn, Mass.).

For assay [3], the target named is T1, CYP3A4. Nature of the assay: IC50 against CYP3A4 by inhibition of testosterone metabolism in human liver microsomes. As to conditions: 0.1 mg/mL human liver microsomes, 25 μM testosterone, 1 mM NADPH, 6-β-OH-testosterone production, eight minutes; read-out: IC50, μM (HLM, testosterone). Here is the method:
2. Determination of IC50 Against CYP3A4 by Measurement of Inhibition of Testosterone Metabolism
This assay was performed using a standard 96 well plate design. […] Quantitation of metabolite peak area ratio against an internal standard is determined by LC-MS/MS analysis. The production of 6-β-OH-testosterone from testosterone metabolism is determined after incubation for eight minutes by comparison to a standard curve generated for the metabolite
as §1, §2

T1 sequence (P08684 whole entry): as above

In general, IC50 refers to the concentration that gives 50% inhibition. In the case of `O=C(Cn1nc(-c2ccncc2)cc1Cc1ccc(F)cc1)NCCN1CCOCC1` [Example 55, 2-[5-(4-fluorobenzyl)-3-pyridin-4-yl-1H-pyrazol-1-yl]-N-(2-morpholin-4-ylethyl)acetamide], the IC50 is 0.044 µM on CYP3A4 [1] and below 0.012 µM at CYP3A4 [3]. Moreover, in assay [2], the Ki turned out to be 0.101 µM.

On to `O=C(Cn1nc(-c2ccncc2)cc1Cc1ccc(F)cc1)N1CCN(c2ncccn2)CC1` [Example 56, 2-(4-{[5-(4-fluorobenzyl)-3-pyridin-4-yl-1H-pyrazol-1-yl]acetyl}piperazin-1-yl)pyrimidine], for which the IC50 on CYP3A4 [1] and at CYP3A4 [3] was below 0.012 µM in each case. Also, the Ki in assay [2] was determined as 0.0303 µM.

Consider `CC(C)(N)CNC(=O)Cn1nc(-c2ccncc2)cc1Cc1ccc(F)cc1` [Example 57, N-(2-amino-2-methylpropyl)-2-[5-(4-fluorobenzyl)-3-pyridin-4-yl-1H-pyrazol-1-yl]acetamide], for which the values for the half-inhibitory concentration (IC50) on CYP3A4 [1] and at CYP3A4 [3] were 0.064 µM and 0.062 µM, respectively. The Ki in assay [2] came out at 0.124 µM.

In the case of `CC(C)NC(=O)Cn1nc(-c2ccncc2)cc1Cc1ccc(F)cc1` [Example 58, 2-[5-(4-fluorobenzyl)-3-pyridin-4-yl-1H-pyrazol-1-yl]-N-isopropylacetamide], the IC50 at CYP3A4 [1] was 0.043 µM; at CYP3A4 [3], 0.027 µM. Further, the Ki in assay [2] was determined as 0.103 µM.

`Cc1noc(Cn2nc(-c3ccncc3)cc2Cc2ccc(F)cc2)n1` [Example 59, 4-{5-(4-fluorobenzyl)-1-[(3-methyl-1,2,4-oxadiazol-5-yl)methyl]-1H-pyrazol-3-yl}pyridine]: the 50% inhibitory concentration (IC50) was 0.0944 µM on CYP3A4 [1] and 0.0665 µM at CYP3A4 [3]. For the same molecule, the Ki in assay [2] worked out at 0.142 µM.

As to `CC(C)(O)CNC(=O)Cn1nc(-c2ccncc2)cc1Cc1ccc(F)cc1` [Example 60, 2-[5-(4-fluorobenzyl)-3-pyridin-4-yl-1H-pyrazol-1-yl]-N-(2-hydroxy-2-methylpropyl)acetamide], the IC50 is 0.02 µM on CYP3A4 [1] and 0.032 µM at CYP3A4 [3]. Also, the Ki in assay [2] came out at 0.0765 µM.

In the case of `CN1CCN(C(=O)Cn2nc(-c3ccncc3)cc2Cc2ccc(F)cc2)CC1` [Example 61, 1-{[5-(4-fluorobenzyl)-3-pyridin-4-yl-1H-pyrazol-1-yl]acetyl}-4-methylpiperazine], the IC50 on CYP3A4 [1] turned out to be 0.016 µM; on CYP3A4 [3] it was 0.038 µM. The Ki in assay [2] is 0.134 µM.

As for `O=C(Cn1nc(-c2ccncc2)cc1Cc1ccc(F)cc1)N1CCNCC1` [Example 62, 1-{[5-(4-fluorobenzyl)-3-pyridin-4-yl-1H-pyrazol-1-yl]acetyl}piperazine], the IC50 is 0.047 µM on CYP3A4 [1] and 0.111 µM at CYP3A4 [3]. Besides, the Ki in assay [2] is 0.604 µM.

Regarding `C[C@@H](O)CNC(=O)Cn1nc(-c2ccncc2)cc1Cc1ccc(F)cc1` [Example 63, 2-[5-(4-fluorobenzyl)-3-pyridin-4-yl-1H-pyrazol-1-yl]-N-[(2R)-2-hydroxypropyl]acetamide], the 50% inhibitory concentration (IC50) worked out at 0.04 µM at CYP3A4 [1] and 0.048 µM at CYP3A4 [3]. Also, the Ki in assay [2] amounted to 0.178 µM.

For `C[C@H](O)CNC(=O)Cn1nc(-c2ccncc2)cc1Cc1ccc(F)cc1` [Example 64, 2-[5-(4-fluorobenzyl)-3-pyridin-4-yl-1H-pyrazol-1-yl]-N-[(2S)-2-hydroxypropyl]acetamide], the IC50 was 0.028 µM on CYP3A4 [1] and 0.032 µM at CYP3A4 [3]. Further, the Ki in assay [2] is 0.185 µM.

As to `N[C@@H]1CCN(C(=O)Cn2nc(-c3ccncc3)cc2Cc2ccc(F)cc2)C1` [Example 65, (3R)-1-{[5-(4-fluorobenzyl)-3-pyridin-4-yl-1H-pyrazol-1-yl]acetyl}pyrrolidin-3-amine], the IC50 at CYP3A4 [1] stood at 0.059 µM; at CYP3A4 [3], 0.134 µM. Further, the Ki in assay [2] was determined as 0.673 µM.

As to `O=C(CCN1CCOCC1)N1CC(n2nc(-c3ccncc3)cc2Cc2ccc(F)cc2)C1` [Example 67, 4-(3-{3-[5-(4-fluorobenzyl)-3-pyridin-4-yl-1H-pyrazol-1-yl]azetidin-1-yl}-3-oxopropyl)morpholine], the IC50 on CYP3A4 [1] was determined as 0.042 µM; at CYP3A4 [3], 0.052 µM. For the same molecule, the Ki in assay [2] is 0.074 µM.

As to `O=C(c1ncccn1)N1CC(n2nc(-c3ccncc3)cc2Cc2ccc(F)cc2)C1` [Example 68, 2-({3-[5-(4-fluorobenzyl)-3-pyridin-4-yl-1H-pyrazol-1-yl]azetidin-1-yl}carbonyl)pyrimidine], the half-maximal inhibitory concentration (IC50) at CYP3A4 [1] turned out to be 0.091 µM; at CYP3A4 [3] it was 0.081 µM. In addition, the Ki in assay [2] was found to be 0.137 µM.

With `NC(=O)c1noc(Cn2nc(-c3ccncc3)cc2Cc2ccc(F)cc2)n1` [Example 69, 5-{[5-(4-fluorobenzyl)-3-pyridin-4-yl-1H-pyrazol-1-yl]methyl}-1,2,4-oxadiazole-3-carboxamide], the IC50 was 0.0555 µM at CYP3A4 [1] and 0.0203 µM on CYP3A4 [3]. The Ki in assay [2] came to 0.18 µM.

Regarding `Fc1ccc(Cc2cc(-c3ccncc3)nn2Cc2nc(N3CCOCC3)no2)cc1` [Example 70, 4-(5-{[5-(4-fluorobenzyl)-3-pyridin-4-yl-1H-pyrazol-1-yl]methyl}-1,2,4-oxadiazol-3-yl)morpholine], the IC50 at CYP3A4 [1] was 0.019 µM; on CYP3A4 [3], below 0.012 µM. The Ki in assay [2] worked out at 0.0238 µM.

Turning to `CN(C)[C@@H]1CCN(C(=O)Cn2nc(-c3ccncc3)cc2Cc2ccc(F)cc2)C1` [Example 72, (3R)-1-{[5-(4-fluorobenzyl)-3-pyridin-4-yl-1H-pyrazol-1-yl]acetyl}-N,N-dimethylpyrrolidin-3-amine], the half-maximal inhibitory concentration (IC50) at CYP3A4 [1] and on CYP3A4 [3] was 0.026 µM each time. Besides, the Ki in assay [2] is 0.226 µM.

In the case of `CNC1CCN(C(=O)Cn2nc(-c3ccncc3)cc2Cc2ccc(F)cc2)C1` (stereo not drawn) [Example 74, 1-{[5-(4-fluorobenzyl)-3-pyridin-4-yl-1H-pyrazol-1-yl]acetyl}-N-methylpyrrolidin-3-amine], the figures for the concentration for half-maximal inhibition (IC50) on CYP3A4 [1] and on CYP3A4 [3] were 0.046 µM and 0.114 µM, respectively. Also, in assay [2], the Ki turned out to be 0.19 µM.

For the molecule `O=C(Cn1nc(-c2ccncc2)cc1Cc1ccc(F)cc1)N1CCC[C@@H]1CO` [Example 75, [(2R)-1-{[5-(4-fluorobenzyl)-3-pyridin-4-yl-1H-pyrazol-1-yl]acetyl}pyrrolidin-2-yl]methanol], the IC50 was found to be 0.0175 µM on CYP3A4 [1] and 0.0215 µM at CYP3A4 [3]. Besides, the Ki in assay [2] was determined as 0.118 µM.

Regarding `O=C(Cn1nc(-c2ccncc2)cc1Cc1ccc(F)cc1)N1CCCC(O)C1` (stereo not drawn) [Example 76, 1-{[5-(4-fluorobenzyl)-3-pyridin-4-yl-1H-pyrazol-1-yl]acetyl}piperidin-3-ol], the figures for the IC50 at CYP3A4 [1] and at CYP3A4 [3] were below 0.0184 µM and 0.0333 µM, respectively. Further, the Ki in assay [2] worked out at 0.117 µM.

As to `O=C(Cn1nc(-c2ccncc2)cc1Cc1ccc(F)cc1)N1CCC[C@H]1CO` [Example 77, [(2S)-1-{[5-(4-fluorobenzyl)-3-pyridin-4-yl-1H-pyrazol-1-yl]acetyl}pyrrolidin-2-yl]methanol], the half-inhibitory concentration (IC50) on CYP3A4 [1] stood at 0.0511 µM; at CYP3A4 [3] it was 0.0545 µM. Also, the Ki in assay [2] is 0.166 µM.

Regarding `CCn1ccnc1CNC(=O)Cn1nc(-c2ccncc2)cc1Cc1ccc(F)cc1` [Example 79, N-[(1-ethyl-1H-imidazol-2-yl)methyl]-2-[5-(4-fluorobenzyl)-3-pyridin-4-yl-1H-pyrazol-1-yl]acetamide], the half-inhibitory concentration (IC50) is 0.016 µM at CYP3A4 [1] and 0.019 µM at CYP3A4 [3]. In addition, the Ki in assay [2] worked out at 0.052 µM.

`CCc1nc(CNC(=O)Cn2nc(-c3ccncc3)cc2Cc2ccc(F)cc2)no1` [Example 80, N-[(5-ethyl-1,2,4-oxadiazol-3-yl)methyl]-2-[5-(4-fluorobenzyl)-3-pyridin-4-yl-1H-pyrazol-1-yl]acetamide]: the half-maximal inhibitory concentration (IC50) on CYP3A4 [1] is 0.064 µM; at CYP3A4 [3], 0.065 µM. Besides, the Ki in assay [2] came to 0.0516 µM.
